According to US10414798B2, “Cancer stem cell targeting peptide and use thereof” (AGRICULTURAL TECHNOLOGY RESEARCH INSTITUTE, priority 2015, dated 2019):
Entries after “also recorded” stand apart in the source; their conditions may differ.

Experiments:
[1] = Glycan microarray analysis; assay type: binding; conditions: biotin-CSC HP, Cy3-streptavidin
Description: (§1) N-terminus biotin conjugated CSC HPs with the sequences listed in Table A below were synthesized by GeneDirex with purities higher than 95%. Biotin-CSC HPs were dissolved in DMSO to prepare 10 mg/mL stocks.
Glycan Array 100 microchips (Cat. # GA-Glycan-100) were purchased from RayBiotech and were processed following the manufacturer's instruction with some modifications. Briefly, after blocking with 400 μL Sample Diluent (Item E) at room temperature for 30 minutes, the biotin conjugated CSC HPs were diluted to 1 μg/400 μL with Sample Diluent, and hybridization reactions were carried out at room temperature for 2 hours. After washing, 400 μL of 1×Cy3-conjugated streptavidin was added to each well. The incubation chamber was covered with the plastic adhesive strips and the slide was covered with aluminum foil to avoid exposure to light during incubating in a dark room. The slide was incubated with Cy3-conjugated streptavidin at room temperature for 1 hour with gentle rocking or shaking. After thorough washing, the slide was drained completely, and the fluorescent signals on it were read by laser scanner Axon GenePix. The relative intensity on glycan X was defined as (average of X−negative control)/(positive control−negative control)×100%.
The CSC HPs developed could distinguish CSCs from CCs, and this phenomenon was found cross-species between human and mouse. It was very interesting to figure out the targets of these CSC HPs. There were no detectable fluorescent signals of FITC-CSC HPs remaining on the nitrocellulose membrane that had been blotted with CSC membrane proteins separated by SDS PAGE (data not shown). Glycan microarray (Glycan Array 100 microchips), on which 100 kinds of oligosaccharides were spotted 4 times, was utilized to analyze the possibilities of the interactions between oligosaccharides and CSC HPs. Biotin-CSC HPs as listed in Table 2 were hybridized with glycans on chips. The biotin-CSC HPs trapped on the chips were explored with Cy3-conjugated streptavidin, and the fluorescent signals on it were read by a laser scanner. Two major patterns were illustrated in FIGS. 3A-3F. The first one included glycan 16 (Gal-β-1,4-Glc-β-), 18 (Gal-α-1,4-Gal-β-1,4-Glc-β-), and 26 (GalNAc-β-1,3-Gal-α-1,4-Gal-β-1,4-Glc-β-) Globo series (FIG. 3A). Typical cases were CSC HP-1 and CHC HP-hP1 (FIG. 3C). […] The typical cases were CSC HP5, CSC HP6, CSC HP7, and CSC HP9 (FIG. 3C). Two malignancy and metastasis glycan markers, glycan 63 (Fuc-α-1,2-Gal-β-1,4-(Fuc-α-1,3)-GlcNAc-β-, also called Lewis Y epitope) and glycan 69 (Neu5Ac-α-2,6-Gal-β-1,3-(Neu5Ac-α-2,6)-GalNAc-β-), were also detected. […] Both of the two Neu5Ac-α-2,6-residues were necessary for CSC HPs binding (FIG. 3E).

cancer cells (CCs) = assay: Parallel CC experiments with labeled CSC HPs; assay type: binding, mouse; conditions: N-terminal rhodamine B or fluorescein conjugate, fluorescence
Description: (§2) 20 μg/mL of Rhodamine B labeled CSC HP1 (Rd-CSC HP-1) and CSC HP2 (Rd-CSC HP-2) as well as FITC labeled CSC HP11 (FITC-CSC HP-11) were directly used to stain EMT6 CSCs and CCs. Cells were counter-stained with DAPI.
(§3) According to the results above, CSC HP-1, CSC HP-2, CSC HP-3, CSC HP-8, CSC HP-9, CSC HP-10, and CSC HP-11 were selected and chemically synthesized with N-terminal conjugation with rhodamine B or fluorescein. […] It was of interest to determine whether these CSC HPs derived from mouse cancers could recognize human CSCs.

[2] = tested on: mouse embryonic stem cell (mESC); assay: M13 phage display selection, secondary CSC/ESC HP-library (ESC bound fraction); assay type: binding
Description: (§4) The M13 PhD-7 library (NEB, E8100) which contains 10^9 independent clones was purchased from New England Biolabs Inc. 10^13 plaque firming units (pfus) of M13 PhD-7 phages in 10 mL DMEM were pre-adsorbed by cancer cells in a T75 flask twice, each for 1 hour. Subsequently, the supernatant was transferred to a T25 flask containing 5×10^6 CSCs and incubated for 1 hour. The unbound and weakly associated phages were removed by centrifugation and suspension three times in DMEM/0/2% BSA. The cell pellet was suspended in 1 mL PBS containing 10^9 E. coli ER2738 and incubated in a shaker for 1 hour. Then 10 mL LB/5 mM MgCl2 was added. After being cultured over-night at 37° C., the cells were removed by centrifugation and phages in the supernatant were titrated. The aforementioned selection procedures were carried out for three rounds for EMT6 and PANC-1 to obtain the primary EMT6 CSC homing peptide (HP)- and PANC-1 CSC HP-library, respectively. Subsequently, M13 plaques were picked up to prepare the DNA for sequencing. […]
(§5) The primary CSC HP-library was selected directly once by either CT26 or Hepa1-6 CSCs to test the bias of CSC HP affinities to different kinds of cancers. […] Two new peptide sequences, KIYTTLD (CSC HP-9) (SEQ ID NO: 11) and NLQPPAY (CSC HP-12) (SEQ ID NO: 12), were read in the ESC unbound fraction (CSC HP-library) (Table 1).

PANC-1 CSCs = assay: Staining of tumorospheres with rhodamine B or fluorescein labeled CSC HPs; assay type: binding, human; conditions: N-terminal rhodamine B or fluorescein conjugate, fluorescence
Description: [The procedure below names another cell line; the source lists this cell line under the same test.] as §2, §3

EMT6 CSCs = assay: Staining of CSCs with rhodamine B or fluorescein labeled CSC HPs; assay type: binding, mouse; conditions: N-terminal rhodamine B or fluorescein conjugate, fluorescence
Description: as §2, §3

CT26 CSCs [3] = assay: as above; assay type: binding, mouse; conditions: N-terminal rhodamine B or fluorescein conjugate, fluorescence
Description: [The procedure below names another cell line; the source lists this cell line under the same test.] as §2, §3

Hepa1-6 CSCs [4] = assay: as above; assay type: binding, mouse; conditions: N-terminal rhodamine B or fluorescein conjugate, fluorescence
Description: [The procedure below names another cell line; the source lists this cell line under the same test.] as §2, §3

[5] = Glycan microarray analysis, major signal pattern; assay type: binding; conditions: biotin-CSC HP, Cy3-streptavidin
Description: as §1
Glycan Array 100 microchips (Cat. # GA-Glycan-100) were purchased from RayBiotech and were processed following the manufacturer's instruction with some modifications. Briefly, after blocking with 400 μL Sample Diluent (Item E) at room temperature for 30 minutes, the biotin conjugated CSC HPs were diluted to 1 μg/400 μL with Sample Diluent, and hybridization reactions were carried out at room temperature for 2 hours. After washing, 400 μL of 1×Cy3-conjugated streptavidin was added to each well. […] After thorough washing, the slide was drained completely, and the fluorescent signals on it were read by laser scanner Axon GenePix. […]
The CSC HPs developed could distinguish CSCs from CCs, and this phenomenon was found cross-species between human and mouse. […] The biotin-CSC HPs trapped on the chips were explored with Cy3-conjugated streptavidin, and the fluorescent signals on it were read by a laser scanner. […] Two malignancy and metastasis glycan markers, glycan 63 (Fuc-α-1,2-Gal-β-1,4-(Fuc-α-1,3)-GlcNAc-β-, also called Lewis Y epitope) and glycan 69 (Neu5Ac-α-2,6-Gal-β-1,3-(Neu5Ac-α-2,6)-GalNAc-β-), were also detected. […]

Hepa1-6 CSCs [6] = assay: M13 phage display selection, secondary Hepa1-6 CSC HP-library; assay type: binding, mouse; conditions: from Table 1
Description: as §4, §5

CT26 CSCs [7] = assay: M13 phage display selection, secondary CT26 CSC HP-library; assay type: binding, mouse; conditions: from Table 1
Description: as §4, §5

Row | Substance | binding to glycan 19 [1] | signal on glycan 69 [1] | detection in parallel CC experiments (cancer cells (CCs)) | association with PANC-1 tumorospheres (PANC-1 CSCs) | binding to glycan 26 [1] | association with EMT6 CSCs (EMT6 CSCs) | association with CT26 CSCs (CT26 CSCs [3]) | association with Hepa1-6 CSCs (Hepa1-6 CSCs [4]) | also measured
1 | YHMPALM (Cancer Stem Cell Targeting Peptide) [CSC HP-6, synthetic peptide that targets cancer stem cells] | bound strongly | – | – | – | – | – | – | – | –
2 | GSPVMSW (Cancer Stem Cell Targeting Peptide) [CSC HP-hP2, synthetic peptide that targets cancer stem cells] | – | higher signals | – | – | – | – | – | – | –
3 | SQPTWMF (Cancer Stem Cell Targeting Peptide) [CSC HP-1, synthetic peptide that targets cancer stem cells] | – | – | not detectable | definitely associated | bound strongly and specifically | specifically associated | specifically associated | specifically associated | enrichment in the ESC bound fraction [2]: further enriched; binding / signal on glycan 63 [1]: higher signals; also recorded: bound more strongly; major pattern of glycan microarray signals [5]: Globo series
4 | KIYTTLD (Cancer Stem Cell Targeting Peptide) [CSC HP-9, synthetic peptide that targets cancer stem cells] | bound strongly | higher signals | not detectable | definitely associated | – | specifically associated | specifically associated | specifically associated | –
5 | GMMSSPP (Cancer Stem Cell Targeting Peptide) [CSC HP-2, synthetic peptide that targets cancer stem cells] | – | – | not detectable | definitely associated | – | specifically associated | specifically associated | specifically associated | –
6 | HGGVRLY (Cancer Stem Cell Targeting Peptide) [CSC HP-7, synthetic peptide that targets cancer stem cells] | bound strongly | – | – | – | – | – | – | – | –
7 | YHQVKPH (Cancer Stem Cell Targeting Peptide) [CSC HP-hP3, synthetic peptide that targets cancer stem cells] | – | higher signals | – | – | – | – | – | – | –
8 | GPSASRN (Cancer Stem Cell Targeting Peptide) [CSC HP-10, synthetic peptide that targets cancer stem cells] | – | higher signals | not detectable | definitely associated | – | specifically associated | specifically associated | specifically associated | –
9 | ATYGNLW (Cancer Stem Cell Targeting Peptide) [CSC HP-5, synthetic peptide that targets cancer stem cells] | bound strongly | – | – | – | – | – | – | – | –
10 | FSGGGNH (Cancer Stem Cell Targeting Peptide) [CSC HP-3, synthetic peptide that targets cancer stem cells] | – | – | not detectable | definitely associated | weakly bound | specifically associated | specifically associated | specifically associated | bias of CSC HP affinity to Hepa1-6 CSCs (Hepa1-6 CSCs [6]): more specific
11 | GLAPFNA (Cancer Stem Cell Targeting Peptide) [CSC HP-11, synthetic peptide that targets cancer stem cells] | – | higher signals | not detectable | definitely associated | – | specifically associated | specifically associated | specifically associated | –
12 | ELTPLTL (Cancer Stem Cell Targeting Peptide) [CSC HP-8, synthetic peptide that targets cancer stem cells] | – | – | not detectable | definitely associated | weakly bound | specifically associated | specifically associated | specifically associated | bias of CSC HP affinity to CT26 CSCs (CT26 CSCs [7]): more specific
13 | GPKVTIW (Cancer Stem Cell Targeting Peptide) [CSC HP-hP1, synthetic peptide that targets cancer stem cells] | – | – | – | – | bound strongly and specifically | – | – | – | binding / signal on glycan 63 [1]: higher signals; also recorded: bound more strongly; major pattern of glycan microarray signals [5]: Globo series
